Laboratory results as given in US20250136564A1, “PROTEIN TYROSINE PHOSPHATASE INHIBITORS AND USES THEREOF” (Nerio Therapeutics, Inc., priority 2022, published 2025).

Tests used:
[1] = molecular target: full-length human PTPN2 (TC45) (1-387) protein (Homo sapiens (Human), UniProt P17706); experiment: Enzymatic assay, full-length PTPN2 DiFMUP assay; assay type: biochemical; conditions: 0.5 nM PTPN2, 100 μM DiFMUP, 30 min at room temperature
Excerpt: Example A: Enzymatic Assay Used to Determine Potency of PTPN2 Inhibitors
Compounds were subsequently added using a Tecan D300e dispenser. […] A four-parameter curve fit was used to determine IC50 values from % inhibition data.

[2] = tested on: murine B16F10 melanoma cell line; experiment: B16F10 IFNγ-induced cellular growth inhibition assay (xCELLigence RTCA); assay type: cell-based; conditions: Mus musculus, B16-F10, 48 h; read-out: B16 IFNγ Mediated Growth Inhibition Assay: AVG IC50
Procedure: Example B: B16F10 Cellular Growth Inhibition Assay
Compound activity was determined using an interferon gamma (IFNγ)-induced cellular growth inhibition assay with the murine B16F10 melanoma cell line on an Agilent xCELLigence Real-Time Cell Analysis platform (RTCA). RTCA E-Plate View 96 plates (Agilent, 300601010) were pre-equilibrated with 50 μL of assay media (DMEM+10% FBS, Gibco 10566-024, Gibco 10082-147) at 37° C., in a humidified incubator before taking an initial measurement of impedance (sweep). B16F10 cells cultured in assay media were dissociated with TrypLE Express (Gibco 12605-010) for five minutes at 37° C., diluted in 3 volumes of assay buffer, centrifuged for 5 minutes at 500×g at room temperature before diluting cells to 7,700 cells/mL in assay media, plating 130 μL/well (1,000 cells/well) in the inner 60 wells of the assay plate, and adding 150 μL of assay media to the outer wells of the plate. Cells were incubated at room temperature for 20 min to allow cells to settle before placing them in the xCELLigence reader and incubating overnight at 37° C., sweeping wells every 15 minutes. After 24 hours, well readings were paused, plates were removed from the incubator and compounds were added using a Tecan D300e dispenser. All wells were normalized to a final concentration of 0.5% DMSO. Following a 30 min incubation at 37° C., recombinant mouse IFNγ (R&D Systems™ 485 MI100) was diluted to 10 ng/ml in assay media and 20 μL was added to assay wells (1 ng/mL final concentration). Assay plates were placed in the xCELLigence reader and swept every 15 minutes. After 48 hours, well readings were normalized to the time point immediately preceding compound addition and the area under the growth curve (AUC) was calculated by the RTCA software and exported.

Sequence of full-length human PTPN2 (TC45) (1-387) protein (P17706 other isoform, or with tags, fused parts or gaps): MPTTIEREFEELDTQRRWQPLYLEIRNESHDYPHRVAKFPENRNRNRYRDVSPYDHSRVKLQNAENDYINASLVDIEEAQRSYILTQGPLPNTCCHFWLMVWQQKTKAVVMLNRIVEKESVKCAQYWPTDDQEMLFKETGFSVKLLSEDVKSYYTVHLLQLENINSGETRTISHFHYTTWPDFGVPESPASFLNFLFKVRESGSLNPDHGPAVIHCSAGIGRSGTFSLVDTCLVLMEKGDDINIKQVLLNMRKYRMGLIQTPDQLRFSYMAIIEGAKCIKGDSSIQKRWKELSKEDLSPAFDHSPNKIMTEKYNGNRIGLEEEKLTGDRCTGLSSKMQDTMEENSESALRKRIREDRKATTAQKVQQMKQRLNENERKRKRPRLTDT

Structure (SMILES) | IC50 [1] | IC50 [2]
COc1cc2c(c(F)c1N1CC(=O)NS1(=O)=O)CC(NCCC(C)C)CN2C (stereo not drawn) [Example 1, 5-(5-fluoro-3-(isopentylamino)-7-methoxy-1-methyl-1,2,3,4-tetrahydroquinolin-6-yl)-1,2,5-thiadiazolidin-3-one 1,1-dioxide] | > 30000 nM | –
CC(C)CCNC1CNc2cc(O)c(N3CC(=O)NS3(=O)=O)c(F)c2C1 (stereo not drawn) [Example 2, 5-(5-fluoro-7-hydroxy-3-(isopentylamino)-1,2,3,4-tetrahydroquinolin-6-yl)-1,2,5-thiadiazolidin-3-one 1,1-dioxide] | 13 nM | 1450 nM
O=C1CN(c2c(O)cc3c(c2F)CCCN3)S(=O)(=O)N1 [Example 3, 5-(5-fluoro-7-hydroxy-1,2,3,4-tetrahydroquinolin-6-yl)-1,2,5-thiadiazolidin-3-one 1,1-dioxide] | 131 nM | 3330 nM
CN1CCCc2c1cc(O)c(N1CC(=O)NS1(=O)=O)c2F [Example 4, 5-(5-fluoro-7-hydroxy-1-methyl-1,2,3,4-tetrahydroquinolin-6-yl)-1,2,5-thiadiazolidin-3-one 1,1-dioxide] | 875 nM | 12700 nM
CCN1CCCc2c1cc(O)c(N1CC(=O)NS1(=O)=O)c2F [Example 5] | 878 nM | –
CC(C)CN1CCCc2c1cc(O)c(N1CC(=O)NS1(=O)=O)c2F [Example 6] | 959 nM | –
O=C1CN(c2c(O)cc3c(c2F)CCCN3Cc2ccccc2)S(=O)(=O)N1 [Example 7] | 532 nM | –
CC(C)CCN1CCCc2c1cc(O)c(N1CC(=O)NS1(=O)=O)c2F [Example 8] | 957 nM | –
O=C1CN(c2c(O)cc3c(c2F)CCCN3CCc2ccccc2)S(=O)(=O)N1 [Example 9] | 1620 nM | –
